Reference: patent US20260055079A1, “PHTHALAZINONE COMPOUNDS AS PARP7 INHIBITORS” (AZKARRA THERAPEUTICS, INC., priority 2022, published 2026)

biological target: His-GST-PARP7 (Homo sapiens (Human), UniProt Q7Z3E1); assay: PARP7 biochemical assay; conditions: not given
Sequence (Q7Z3E1 whole entry): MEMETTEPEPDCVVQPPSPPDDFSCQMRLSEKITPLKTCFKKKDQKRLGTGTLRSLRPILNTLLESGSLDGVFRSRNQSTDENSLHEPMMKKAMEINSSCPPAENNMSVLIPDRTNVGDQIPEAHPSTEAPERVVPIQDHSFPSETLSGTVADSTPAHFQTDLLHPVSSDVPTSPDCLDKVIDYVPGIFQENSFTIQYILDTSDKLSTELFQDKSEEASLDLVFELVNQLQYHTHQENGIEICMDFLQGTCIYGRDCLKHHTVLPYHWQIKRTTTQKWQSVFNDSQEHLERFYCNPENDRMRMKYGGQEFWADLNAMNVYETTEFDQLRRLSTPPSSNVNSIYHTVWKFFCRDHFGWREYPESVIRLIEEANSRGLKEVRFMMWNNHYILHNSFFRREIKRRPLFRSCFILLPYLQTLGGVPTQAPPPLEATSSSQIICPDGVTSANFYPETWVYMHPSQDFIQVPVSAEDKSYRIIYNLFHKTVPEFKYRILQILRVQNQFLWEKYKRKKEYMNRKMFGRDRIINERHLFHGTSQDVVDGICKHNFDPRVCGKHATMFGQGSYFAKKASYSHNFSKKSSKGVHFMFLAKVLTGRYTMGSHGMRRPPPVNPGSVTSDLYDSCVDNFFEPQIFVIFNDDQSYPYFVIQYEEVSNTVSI

**Q.** With `O=C(c1cc(Cc2n[nH]c(=O)c3ccc(OC4CCC4)cc23)ccc1F)N1C[C@H]2CC[C@@H](C1)N2C(=O)C1CC1` [Example 107, 6-Cyclobutoxy-4-(3-(8-(cyclopropanecarbonyl)-3,8-diazabicyclo[3.2.1]octane-3-carbonyl)-4-fluorobenzyl)phthalazin-1(2H)-one] as the molecule, how does the IC50 read?
**A.** 100 to 500 nM

**Q.** `O=C(C1CC1)N1C[C@H]2CC[C@@H](C1)N2C(=O)c1cc(Cc2n[nH]c(=O)c3ccc(OC4CCC4)cc23)ccc1F` [Example 112, 6-Cyclobutoxy-4-(3-(3-(cyclopropanecarbonyl)-3,8-diazabicyclo[3.2.1]octane-8-carbonyl)-4-fluorobenzyl)phthalazin-1(2H)-one] was tested. Which IC50 did it give?
**A.** 100 to 500 nM

same assay, conditions: read-out: PARP7 IC50

**Q.** How did the IC50 turn out when `Cc1cccc(Oc2ccc3c(=O)[nH]nc(Cc4ccc(F)c(C(=O)N5CCN(c6ccc(C#N)cn6)CC5)c4)c3c2)c1` [Example 90, 6-(4-(2-fluoro-5-((4-oxo-7-(m-tolyloxy)-3,4-dihydrophthalazin-1-yl)methyl)benzoyl)piperazin-1-yl)nicotinonitrile] was run?
**A.** < 50 nM

**Q.** With `N#Cc1ccnc(N2CCN(C(=O)c3cc(Cc4n[nH]c(=O)c5ccc(OC6CCC6)cc45)ccc3F)CC2)c1` [Example 95, 2-(4-(5-((7-Cyclobutoxy-4-oxo-3,4-dihydrophthalazin-1-yl)methyl)-2-fluorobenzoyl)piperazin-1-yl)isonicotinonitrile] as the molecule, how does the IC50 read?
**A.** < 50 nM

**Q.** `N#Cc1ccc(N2C[C@H]3CC[C@@H](C2)N3C(=O)c2cc(Cc3n[nH]c(=O)c4ccc(OC5CCC5)cc34)ccc2F)nc1` [Example 96, 6-(8-(5-((7-Cyclobutoxy-4-oxo-3,4-dihydrophthalazin-1-yl)methyl)-2-fluorobenzoyl)-3,8-diazabicyclo[3.2.1]octan-3-yl)nicotinonitrile] was tested. Which IC50 did it give?
**A.** < 50 nM

**Q.** How did the IC50 turn out when `O=C(c1cc(Cc2n[nH]c(=O)c3ccc(OC4CCC4)cc23)ccc1F)N1[C@@H]2CC[C@H]1CN(c1ncc(C(F)(F)F)cn1)C2` [Example 97, 6-cyclobutoxy-4-(4-fluoro-3-(3-(5-(trifluoromethyl)pyrimidin-2-yl)-3,8-diazabicyclo[3.2.1]octane-8-carbonyl)benzyl)phthalazin-1(2H)-one] was run?
**A.** < 50 nM

**Q.** `O=C(c1cc(Cc2n[nH]c(=O)c3ccc(OC4CCC4)cc23)ccc1F)N1C[C@H]2CC[C@@H](C1)N2c1ncc(C(F)(F)F)cn1` [Example 100, 6-Cyclobutoxy-4-(4-fluoro-3-(8-(5-(trifluoromethyl)pyrimidin-2-yl)-3,8-diazabicyclo[3.2.1]octane-3-carbonyl)benzyl)phthalazin-1(2H)-one] was tested. Which IC50 did it give?
**A.** < 50 nM

**Q.** `O=C(c1cc(Cc2n[nH]c(=O)c3ccc(OC4CCC4)cc23)ccc1F)N1CC(Nc2ncc(C(F)(F)F)cn2)C1` [Example 102, 6-Cyclobutoxy-4-(4-fluoro-3-(3-((5-(trifluoromethyl)pyrimidin-2-yl)amino)azetidine-1-carbonyl)benzyl)phthalazin-1(2H)-one] was tested. Which IC50 did it give?
**A.** 50 to 100 nM

**Q.** Which IC50 does the source give for `O=C(c1cc(Cc2n[nH]c(=O)c3ccc(OC4CCC4)cc23)ccc1F)N1CCC2C1CCN2c1ncc(C(F)(F)F)cn1` (stereo not drawn) [Example 103, 6-Cyclobutoxy-4-(4-fluoro-3-(4-(5-(trifluoromethyl)pyrimidin-2-yl)octahydropyrrolo[3,2-b]pyrrole-1-carbonyl)benzyl)phthalazin-1(2H)-one] here?
**A.** 50 to 100 nM

**Q.** `N#Cc1ccc(NC2CN(C(=O)c3cc(Cc4n[nH]c(=O)c5ccc(OC6CCC6)cc45)ccc3F)C2)nc1` [Example 104, 6-((1-(5-((7-Cyclobutoxy-4-oxo-3,4-dihydrophthalazin-1-yl)methyl)-2-fluorobenzoyl)azetidin-3-yl)amino)nicotinonitrile] was tested. Which IC50 did it give?
**A.** 50 to 100 nM

**Q.** For `N#Cc1ccnc(NC2CN(C(=O)c3cc(Cc4n[nH]c(=O)c5ccc(OC6CCC6)cc45)ccc3F)C2)c1` [Example 106, 2-(1-(5-((7-Cyclobutoxy-4-oxo-3,4-dihydrophthalazin-1-yl)methyl)-2-fluorobenzoyl)azetidin-3-ylamino)isonicotinonitrile], which IC50 is on record?
**A.** 100 to 500 nM

**Q.** With `CNC(=O)c1ccnc(N(C)C2CN(C(=O)c3cc(Cc4n[nH]c(=O)c5ccc(OC6CCC6)cc45)ccc3F)C2)n1` [Example 108, 2-((1-(5-((7-cyclobutoxy-4-oxo-3,4-dihydrophthalazin-1-yl)methyl)-2-fluorobenzoyl)azetidin-3-yl)(methyl)amino)-N-methylpyrimidine-4-carboxamide] as the molecule, how does the IC50 read?
**A.** 100 to 500 nM

**Q.** With `O=C(c1cc(Cc2n[nH]c(=O)c3ccc(OC4CCC4)cc23)ccc1F)N1CCC2C1CCN2C(=O)C1CC1` (stereo not drawn) [Example 109, 6-cyclobutoxy-4-(3-(4-(cyclopropanecarbonyl)octahydropyrrolo[3,2-b]pyrrole-1-carbonyl)-4-fluorobenzyl)phthalazin-1(2H)-one] as the molecule, how does the IC50 read?
**A.** 100 to 500 nM

**Q.** `Cc1cnc(N(C)C2CN(C(=O)c3cc(Cc4n[nH]c(=O)c5ccc(OC6CCC6)cc45)ccc3F)C2)n1C` [Example 110, 6-Cyclobutoxy-4-(3-(3-((1,5-dimethyl-1H-imidazol-2-yl)(methyl)amino)azetidine-1-carbonyl)-4-fluorobenzyl)phthalazin-1(2H)-one] was tested. Which IC50 did it give?
**A.** 100 to 500 nM

**Q.** Which IC50 does the source give for `N#Cc1ccc(N2CCC3C2CCN3C(=O)c2cc(Cc3n[nH]c(=O)c4ccc(OC5CCC5)cc34)ccc2F)nc1` (stereo not drawn) [Example 111, 6-(4-(5-((7-Cyclobutoxy-4-oxo-3,4-dihydrophthalazin-1-yl)methyl)-2-fluorobenzoyl)hexahydropyrrolo[3,2-b]pyrrol-1(2H)-yl)nicotinonitrile] here?
**A.** 100 to 500 nM

**Q.** `O=C(NC1CN(C(=O)c2cc(Cc3n[nH]c(=O)c4ccc(OC5CCC5)cc34)ccc2F)C1)C1CC1` [Example 113, N-(1-(5-((7-Cyclobutoxy-4-oxo-3,4-dihydrophthalazin-1-yl)methyl)-2-fluorobenzoyl)azetidin-3-yl)cyclopropanecarboxamide] was tested. Which IC50 did it give?
**A.** 100 to 500 nM

**Q.** How did the IC50 turn out when `CN(C(=O)CCC(F)(F)F)C1CN(C(=O)c2cc(Cc3n[nH]c(=O)c4ccc(OC5CCC5)cc34)ccc2F)C1` [Example 114, N-(1-(5-((7-cyclobutoxy-4-oxo-3,4-dihydrophthalazin-1-yl)methyl)-2-fluorobenzoyl)azetidin-3-yl)-4,4,4-trifluoro-N-methylbutanamide] was run?
**A.** 100 to 500 nM

**Q.** For `N#Cc1ccc(N2CC3CN(C(=O)c4cc(Cc5n[nH]c(=O)c6ccc(OC7CCC7)cc56)ccc4F)CC3C2)nc1` (stereo not drawn) [Example 115, 6-(5-(5-((7-Cyclobutoxy-4-oxo-3,4-dihydrophthalazin-1-yl)methyl)-2-fluorobenzoyl)hexahydropyrrolo[3,4-c]pyrrol-2(1H)-yl)nicotinonitrile], which IC50 is on record?
**A.** 100 to 500 nM

**Q.** How did the IC50 turn out when `CN(c1cncc(C#N)n1)C1CN(C(=O)c2cc(Cc3n[nH]c(=O)c4ccc(OC5CCC5)cc34)ccc2F)C1` [Example 116, 6-((1-(5-((7-Cyclobutoxy-4-oxo-3,4-dihydrophthalazin-1-yl)methyl)-2-fluorobenzoyl)azetidin-3-yl)(methyl)amino)pyrazine-2-carbonitrile] was run?
**A.** 100 to 500 nM

**Q.** With `CN(C(=O)C1CCN1)C1CN(C(=O)c2cc(Cc3n[nH]c(=O)c4ccc(OC5CCC5)cc34)ccc2F)C1` (stereo not drawn) [Example 117, N-(1-(5-((7-cyclobutoxy-4-oxo-3,4-dihydrophthalazin-1-yl)methyl)-2-fluorobenzoyl)azetidin-3-yl)-N-methylazetidine-2-carboxamide] as the molecule, how does the IC50 read?
**A.** 500 to 2000 nM

**Q.** `CN(C(=O)CC#N)C1CN(C(=O)c2cc(Cc3n[nH]c(=O)c4ccc(OC5CCC5)cc34)ccc2F)C1` [Example 118, 2-Cyano-N-(1-(5-((7-cyclobutoxy-4-oxo-3,4-dihydrophthalazin-1-yl)methyl)-2-fluorobenzoyl)azetidin-3-yl)-N-methylacetamide] was tested. Which IC50 did it give?
**A.** 500 to 2000 nM
